Measurements: patent publication US12441706B2, “Protein degradation agent compound preparation method and application” (SHANGHAI JEMINCARE PHARMACEUTICALS CO., LTD., priority 2019, dated 2025)

Experiments:
LNcap FGC cells = assay: Inhibition of proliferation of LNcap FGC cells (Cell Titer Glo, 6 days); format: cell-based; settings: Homo sapiens, LNCaP, 144 h
Protocol: Tumor cell line LNcap FGC (ATCC catalog number CRL-1740) was cultured in RPMI 1640 (Gibco catalog number 11875-093) and DMEM (Gibco catalog number. 11965-092) medium containing 10% FBS (Gibco catalog number 10099-141C), respectively.
LNcap FGC cells were inoculated in a 384-well plate (Perkin Elmer catalog number 6007460) at a cell density of 400 cells/well in a volume of 20 μL/well and incubated overnight in a carbon dioxide incubator (Thermo). The prepared compound solutions of different concentrations were added in a volume of 5 μL/well. The corresponding vehicle control was set at the same time. After being cultured in the incubator for 6 days, the cell plate and the contents were equilibrated to room temperature, and 25 μL of Cell Titer Glor (Promega catalog number G7573) was added to each well, shook and mixed well, incubated in dark for 10-30 minutes, and the signal values were detected with Envision microplate reader (PerkinElmer).
The percentage inhibition rate of compound-treated wells was calculated from the vehicle control wells on the plate, and the percentage inhibition rate data corresponding to different concentrations were fitted by GraphPad prism, and the IC50 values were calculated by 4-parameter nonlinear logic formula.

androgen receptor = molecular target: T1, androgen receptor (Homo sapiens, UniProt P10275); assay: In-Cell-Western determination of androgen receptor degradation in VCaP cells; format: cell-based; settings: 24 hours treatment; for DC50: concentration for half of the maximal degradation of AR in VCaP cells; for Dmax: maximum degradation of AR in VCaP cells
T1 construct: endogenous in cells; host or cells: VCaP cells
T1 sequence (P10275 1-920): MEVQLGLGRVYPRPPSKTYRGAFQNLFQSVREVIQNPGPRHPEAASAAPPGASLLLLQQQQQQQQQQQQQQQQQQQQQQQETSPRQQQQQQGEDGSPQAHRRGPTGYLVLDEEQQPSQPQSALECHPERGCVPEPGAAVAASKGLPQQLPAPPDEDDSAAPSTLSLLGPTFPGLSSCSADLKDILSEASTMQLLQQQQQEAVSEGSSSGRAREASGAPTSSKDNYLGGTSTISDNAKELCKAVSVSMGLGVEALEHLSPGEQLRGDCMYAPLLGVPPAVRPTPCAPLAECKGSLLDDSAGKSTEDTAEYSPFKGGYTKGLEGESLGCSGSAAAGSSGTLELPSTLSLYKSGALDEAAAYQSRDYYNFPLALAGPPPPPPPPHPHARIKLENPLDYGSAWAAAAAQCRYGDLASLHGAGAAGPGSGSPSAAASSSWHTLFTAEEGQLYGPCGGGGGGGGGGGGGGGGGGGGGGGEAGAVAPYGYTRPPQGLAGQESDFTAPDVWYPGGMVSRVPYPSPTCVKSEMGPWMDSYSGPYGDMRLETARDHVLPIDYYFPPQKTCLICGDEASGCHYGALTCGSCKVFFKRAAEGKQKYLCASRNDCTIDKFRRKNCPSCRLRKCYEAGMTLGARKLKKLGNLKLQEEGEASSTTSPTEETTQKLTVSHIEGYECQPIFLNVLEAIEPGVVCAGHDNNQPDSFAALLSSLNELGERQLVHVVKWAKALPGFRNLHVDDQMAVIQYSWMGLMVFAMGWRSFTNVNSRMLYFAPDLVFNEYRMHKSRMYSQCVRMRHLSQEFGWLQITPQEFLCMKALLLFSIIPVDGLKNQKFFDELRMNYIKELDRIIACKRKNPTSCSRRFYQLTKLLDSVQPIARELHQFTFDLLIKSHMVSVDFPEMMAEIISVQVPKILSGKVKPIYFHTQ
Protocol: The determination evaluated the properties of the compounds in Vcap cells. Intracellular androgen receptor was determined by In-Cell-Western according to the determination steps described below.
In poly-D-Lysin pretreated 96-well cell culture plate (Corning 3599), Vcap cells were divided into […] volume, and inoculated with 50,000 cells/well in Vcap cell assay medium [DMEM containing phenol red (Gibco catalog number: 11995065); fetal bovine serum FBS (Gibco catalog number: 10099141C)]. Cells were cultured for at least two days.
1. First treated cells with compound. Compounds were gradient diluted with DMSO and cell culture medium, so that DMSO contained in cell culture plates was diluted to 0.5% —polypropylene plates were used according to the following protocol:
(1)(i) 200× stock plate in DMSO was prepared; (ii) 10 mM stock solution was diluted 1:4 with DMSO (10 μL stock solution+40 μL DMSO)=2000 μM, then entered into row 2; (iii) 1:4 (10 μL protac+40 μL DMSO) gradient dilution was performed in row 2 to row 9, and row 1 was reserved for 2000 μM reference compound and row 10 for DMSO. (iv) A total of 8 concentrations (final concentrations on the 200×plate were 2000 μM, 400 μM, 80 μM, etc.). (i) 3×stock solution in medium was prepared; (ii) 3 μL of 200× stock solution was transferred to 197 μL of culture medium (using 12-channel pipette, from line 1 to line 10), i.e. 3× stock solution plate. (iii) The stock solution plate was mixed evenly. (3) (i) The culture medium of Vcap cells was replaced with fresh culture medium, 100 μL volume culture medium. (ii) The well-mixed 3×stock solution was transferred to the cell culture plate (using 12-channel pipette, and 50 μL of stock solution was transferred from line 1 to line 10). (iii) Cells were cultured for 24 hours.
2. The expression level of intracellular androgen receptor after compound treatment was […] and determined according to the following method.
(1)(i) Equal volume of 8% paraformaldehyde was added to the cell culture plate for cell fixation. The fixing solution in the cell plate was discarded and washed three times with PBS. (ii) Triton solution (1:1000 dilution of the stock solution) was prepared. The solution in the cell plate was discarded, and 200 μL of Triton diluent was added into each well. (iii) 2×blocking solution (1:4 dilution of 10×blocking stock solution) was prepared. The solution in the cell plate was discarded, and 100 μL of 2×blocking solution was added into each well. (iv) Primary antibody solution (Androgen receptor Rabbbit mAb, Cell Signaling Technology catalog number: 5153; 1:1000 dilution) was prepared. The solution in the cell plate was discarded, 100 μL volume of primary antibody diluent was added to each well, and incubated at 4° C. overnight. (v) The primary antibody solution was discarded and the cell plate was washed with 1×Wash buffer. (vi) Secondary antibody solution (GOAT Antirabbit IgG (H+L), HRP, Thermo catalog number: 31460; 1:5000 dilution) was prepared, and 100 μL volume of secondary antibody dilution was added to each well for incubation. (vii) The secondary antibody solution in the cell plate was discarded and the cell plate was washed with 1× Wash buffer. (viii) TMB chromogenic solution (BD catalog number: 550534) was prepared, and 100 μL chromogenic solution was added into each well. (ix) 50 μL volume of stop solution (BD catalog number: 550534) was added to each well. (x) The absorption values at OD 450 nm and 570 nm were read though EnVision. (2)(i) Normalized analysis was performed on the number of cells in each well. The solution in the cell plate was discarded, and washed with wash buffer for three times. (ii) Janus dilution (1:3 dilution) was prepared. (iii) 50 μL volume diluent was added to each well for incubation. (iv) The solution in the plate was discarded and washed with deionized water. […]

Structure (SMILES)	Emax (LNcap FGC cells)	IC50 (LNcap FGC cells)	DC50 (androgen receptor)	Dmax (androgen receptor)
CC1(C)C(=O)N(c2ccc(C#N)c(Cl)c2)c2ccc(-c3ccc(N4CC(CN5CCN(c6ccc7c(c6)C(=O)N(C6CCC(=O)NC6=O)C7=O)CC5)C4)cc3)cc21 (stereo not drawn) [Compound 1]	91%	0.0661 µM	0.035 µM	68%
CC1(C)C(=O)N(c2ccc(C#N)c(C(F)(F)F)c2)c2ccc(-c3ccc(N4CC(CN5CCN(c6ccc7c(c6)C(=O)N(C6CCC(=O)NC6=O)C7=O)CC5)C4)cc3)cc21 (stereo not drawn) [Compound 3]	93%	0.0548 µM	0.076 µM	60%
CC1(C)C(=O)N(c2ccc(C#N)c(Cl)c2)c2ccc(-c3ccc(N4CC(CN5CCN(c6ccc7c(c6)C(=O)N(C6CCC(=O)NC6=O)C7=O)CC5)C4)nc3F)cc21 (stereo not drawn) [Compound 14]	100%	0.0607 µM	0.094 µM	85%
